Results taken from PubChem BioAssay (NCI).
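Briefly, cells in 96-well plates were exposed to five compound concentrations for 48 h, and endpoints were estimated by linear interpolation. The concentration for 50% growth inhibition is given as GI50. The concentration for full growth arrest is given as TGI.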

Experiments:
Assay in all cases: DTP human tumour cell line panel, 48 h
[1] = test system: COLO 205 colon
[2] = test system: RPMI-8226 leukemia
[3] = test system: MDA-MB-231 breast
[4] = test system: MOLT-4 leukemia
[5] = test system: SN12C renal
[6] = test system: SK-MEL-28 melanoma
[7] = test system: OVCAR-8 ovarian
[8] = test system: MALME-3M melanoma
[9] = test system: NCI-H23 lung
[10] = test system: CCRF-CEM leukemia
[11] = test system: HT29 colon
[12] = test system: DU-145 prostate
[13] = test system: T-47D breast
[14] = test system: NCI-H522 lung
[15] = test system: SK-MEL-2 melanoma
[16] = test system: A549 NSCLC
[17] = test system: SF-295 CNS
[18] = test system: BT-549 breast
[19] = test system: SNB-75 CNS
[20] = test system: SK-OV-3 ovarian
[21] = test system: SNB-19 CNS
[22] = test system: SW-620 colon
[23] = test system: A498 renal
[24] = test system: PC-3 prostate
[25] = test system: ACHN renal
[26] = test system: RXF 393 renal
[27] = test system: HCT-15 colon
[28] = test system: HL-60(TB) leukemia
[29] = test system: MCF7 breast
[30] = test system: UACC-257 melanoma
[31] = test system: OVCAR-3 ovarian
[32] = test system: SF-539 CNS
[33] = test system: 786-0 renal
[34] = test system: U251 CNS
[35] = test system: NCI/ADR-RES ovarian
[36] = test system: HCC-2998 colon
[37] = test system: LOX IMVI melanoma
[38] = test system: TK-10 renal
[39] = test system: KM12 colon
[40] = test system: OVCAR-4 ovarian
[41] = test system: IGROV1 ovarian
[42] = test system: NCI-H460 lung
[43] = test system: NCI-H226 lung
[44] = test system: K-562 leukemia
[45] = test system: UACC-62 melanoma
[46] = test system: HCT-116 colon
[47] = test system: SR leukemia
[48] = test system: EKVX NSCLC
[49] = test system: HOP-92 NSCLC
[50] = test system: SK-MEL-5 melanoma
[51] = test system: MDA-MB-435
[52] = test system: M14 melanoma
[53] = test system: OVCAR-5 ovarian
[54] = test system: HS 578T breast
[55] = test system: SF-268 CNS

O=C1NC(SCc2ccc(F)cc2)=N/C1=C/c1cccc(OCc2ccc(Cl)cc2)c1
GI50 [1]: > 100 µM | TGI [1]: > 100 µM | GI50 [2]: > 100 µM | TGI [2]: > 100 µM | GI50 [3]: 24.6 µM | TGI [3]: > 100 µM | GI50 [4]: 31.6 µM | TGI [4]: > 100 µM | GI50 [5]: 4.52 µM | TGI [5]: > 100 µM | GI50 [6]: > 100 µM | TGI [6]: > 100 µM | GI50 [7]: 18.8 µM | TGI [7]: > 100 µM | GI50 [8]: 26.5 µM | TGI [8]: > 100 µM | GI50 [9]: 16.9 µM | TGI [9]: > 100 µM | GI50 [10]: 64.2 µM | TGI [10]: > 100 µM | GI50 [11]: > 100 µM | TGI [11]: > 100 µM | GI50 [12]: > 100 µM | TGI [12]: > 100 µM | GI50 [13]: 13.9 µM | TGI [13]: > 100 µM | GI50 [14]: 57.3 µM | TGI [14]: > 100 µM | GI50 [15]: > 100 µM | TGI [15]: > 100 µM | GI50 [16]: 6.61 µM | TGI [16]: > 100 µM | GI50 [17]: 4.97 µM | TGI [17]: > 100 µM | GI50 [18]: 23.4 µM | TGI [18]: > 100 µM | GI50 [19]: 10.1 µM | TGI [19]: > 100 µM | GI50 [20]: 36.9 µM | TGI [20]: > 100 µM | GI50 [21]: 21.7 µM | TGI [21]: > 100 µM | GI50 [22]: 20 µM | TGI [22]: > 100 µM | GI50 [23]: 3.53 µM | TGI [23]: 26.2 µM | GI50 [24]: > 100 µM | TGI [24]: > 100 µM | GI50 [25]: 1.93 µM | TGI [25]: 3.87 µM | GI50 [26]: 9.22 µM | TGI [26]: 48.9 µM | GI50 [27]: 55.3 µM | TGI [27]: > 100 µM | GI50 [28]: > 100 µM | TGI [28]: > 100 µM | GI50 [29]: 19.7 µM | TGI [29]: > 100 µM | GI50 [30]: > 100 µM | TGI [30]: > 100 µM | GI50 [31]: 5.08 µM | TGI [31]: 31.5 µM | GI50 [32]: 4.87 µM | TGI [32]: 72.2 µM | GI50 [33]: 2.88 µM | TGI [33]: 8.8 µM | GI50 [34]: 3.83 µM | TGI [34]: 19.6 µM | GI50 [35]: 22.2 µM | TGI [35]: > 100 µM | GI50 [36]: 51.1 µM | TGI [36]: > 100 µM | GI50 [37]: 6 µM | TGI [37]: > 100 µM | GI50 [38]: 6.07 µM | TGI [38]: 87.8 µM | GI50 [39]: > 100 µM | TGI [39]: > 100 µM | GI50 [40]: 2.07 µM | TGI [40]: 4.85 µM | GI50 [41]: 4.91 µM | TGI [41]: > 100 µM | GI50 [42]: 4.39 µM | TGI [42]: 30.3 µM | GI50 [43]: 5.42 µM | TGI [43]: > 100 µM | GI50 [44]: 28.8 µM | TGI [44]: > 100 µM | GI50 [45]: > 100 µM | TGI [45]: > 100 µM | GI50 [46]: 3.27 µM | TGI [46]: 14.9 µM | GI50 [47]: 5.05 µM | TGI [47]: 76.2 µM | GI50 [48]: 8.86 µM | TGI [48]: > 100 µM | GI50 [49]: 67.7 µM | TGI [49]: > 100 µM | GI50 [50]: > 100 µM | TGI [50]: > 100 µM | GI50 [51]: > 100 µM | TGI [51]: > 100 µM | GI50 [52]: 47.4 µM | TGI [52]: > 100 µM | GI50 [53]: > 100 µM | TGI [53]: > 100 µM | GI50 [54]: 9.36 µM | TGI [54]: > 100 µM | GI50 [55]: > 100 µM | TGI [55]: > 100 µM
